Data set [1] has as its system Caco-2 cells. Briefly: Apoptosis (sub-G1 events) by PI staining and flow cytometry. Format: cell-based, human. The conditions noted are these: 72 h. How it is done: Given that apoptosis is a common programmed mechanism regulating cell death, characterized by DNA fragmentation and an increase in sub-G1 events, we employed the method described by Riccardi and Nicolleti to assess potential apoptosis induction using flow cytometry. Cyanine dyes 5 and 10 were tested at concentrations of 1 µM and 10 µM, respectively. As positive controls for apoptosis, 600 mM sorbitol and 10 µM 5-FU were used, with untreated cells serving as the negative control. […] In contrast, dye 10 induced a slight increase in apoptosis, reaching 1.7%. […] Apoptotic bodies were more evident in cells treated with dye 5 compared to dye 10, which is further supported by the slightly higher apoptosis induction in this assay.
Apoptosis (sub-G1 events) and cell cycle distribution were evaluated by propidium iodide (PI) staining and flow cytometry, as described by Riccardi and Nicolleti. […] Untreated cells were used as the negative control, and sorbitol and 5-FU were used as positive controls. After incubation, the supernatant was collected in a centrifuge tube, cells were washed with PBS, trypsinized and wells were once again washed with PBS. This cell suspension was maintained on ice, centrifugated at 300 g for 5 min, and then the pellet was resuspended in 0.5 mL of PBS. Cells were fixed by adding 4.5 mL of 70% ethanol cooled at −20 °C on ice and were stored at −20 °C for a period ranging from one to a few days. On the day of flow cytometry analysis, PBS was added to the fixed cell tubes, followed by centrifugation and removal of the supernatant. The pellet was resuspended in 0.5 mL of PBS and 0.5 mL of DNA extraction solution (192 mL of 0.2 M sodium phosphate and 8 mL of […], pH 7.8). After incubation for 5 min, the cells were once again centrifuged, the supernatant was removed, and the pellet was resuspended in 0.3 mL of staining solution (20 µg/mL of PI and 0.2 mg/mL of DNase-free RNase in PBS). Using a FACSCalibur flow cytometer (Becton Dickinson, Franklin Lakes, NJ, USA) with a 488 nm laser line, a minimum of 20,000 events were acquired and recorded using the BD CellQuestTM Pro 4.0.2 software, and analyzed with FlowJo 10.5.3 software. To exclude debris and necrotic cells, events with a lower diameter (forward scatter; FCS) and PI fluorescence (FL3) than the hypodiploid apoptotic cells were eliminated (Figures S1 and S2). Two independent experiments were performed. A Student’s t-test was performed to evaluate the statistical significance of the results.
(In general: A flow cytometer gives signals particle by particle.)

The nature of data set [2]: MTT cell viability assay, NHDF. To be noted: human, normal human dermal fibroblasts (NHDF); 10 µM, 72 h, mean ± SD; read-out: cell viability percentage in relation to control, NHDF. Format: cell-based, human. A general note: Tetrazolium dyes change colour on reduction, which living cells bring about.
Description: (§1) To evaluate the anticancer potential of monomethine cyanine dyes 1–12, a cell proliferation study was conducted using the 3-(4,5-dimethylthiazol-2-yl)-2,5-diphenyltetrazolium bromide (MTT) assay. For this preliminary evaluation, a concentration of 10 µM for each dye was tested, with the well-established chemotherapy agent 5-fluorouracil (5-FU) serving as a positive control. The assay included normal human dermal fibroblasts (NHDF) as non-tumor cells, alongside tumor cell lines from colorectal (Caco-2), prostate (PC-3), and breast (MCF-7) adenocarcinomas.
(§2) The cell lines used in this study (Caco-2, MCF-7, PC-3, and NHDF) were obtained from the American Type Culture Collection (ATCC, Manassas, VA, USA) and cultured in 75 cm^2 culture flasks at 37 °C in a humidified atmosphere with 5% CO2 in a LEEC Culture Safe Precision CO2 Incubator. PC-3 cells were grown in Roswell Park Memorial Institute (RPMI) medium supplemented with 10% of inactivated Fetal Bovine Serum (FBS) and 1% of an antibiotic mixture (Sp; 10,000 U/mL of penicillin G and 100 mg/mL of streptomycin). MCF-7 and Caco-2 cell lines were both cultured using Dulbecco’s Modified Eagle Medium (DMEM). However, the medium for MCF-7 cells was complemented with 10% of inactivated FBS and 1% of antibiotic/antimycotic mixture (Ab; 10,000 U/mL of penicillin G, 100 mg/mL of streptomycin and 25 µg/mL of amphotericin B), and the medium for Caco-2 cells was supplemented with 20% of inactivated FBS and 1% of Sp. Finally, RPMI medium supplemented with 10% FBS, 2 mM of L-glutamine, 10 mM of 4-(2-hydroxyethyl)-1-piperazineethanesulfonic acid (HEPES), 1 mM of sodium pyruvate, and 1% of Ab was used to culture NHDF cells. The culture media were renewed every two to three days until near confluence was achieved. Then, cells were detached using a solution of 0.125 g/L of trypsin and 0.02 g/L of ethylenediaminetetracetic acid (EDTA), counted by the trypan blue method, resuspended, and adequately seeded to continue the culture in 75 cm^2 flasks or for the experiments described below. All manipulations were performed in a Labculture Class II A2 Biological Safety Cabinet.
(§3) After trypsinization, cells were seeded in 96-well culture plates (100 µL; 2 × 10^4 cells/mL), and after 48 h (for adherence), they were incubated with the compounds under study in the absence of light for a duration of 72 h. Then, the medium was removed, and fresh incomplete culture medium (without FBS and Ab or Sp) and MTT solution [5 mg/mL in phosphate buffer saline (PBS)] were added to each well, followed by 4 h of incubation. After this, the medium containing MTT was removed and DMSO was added to dissolve formazan crystals. The absorbance of each well at 570 nm was determined using a microplate spectrophotometer Bio-Rad (Hercules, CA, USA) xMark. Untreated cells were considered the negative control, and 5-FU, a clinically used drug, was considered the positive control. For data analysis, the relative cell proliferation relative to the negative control cells was calculated. For each cell viability study, at least two independent assays in quadruplicate were performed. Increasing concentrations of the compounds between 0.001 and 100 μM were used to determine the IC50 values.
Data set [3] deals with normal human dermal fibroblasts (NHDF). The experiment in a line: MTT cell viability assay, NHDF. The conditions noted are these: Homo sapiens; NHDF, 72 h incubation, MTT, absence of light; read-out: IC50 NHDF. Format: cell-based.
Description: as §1, §2, §3
Data set [4] has as its system Caco-2 cells. Briefly: Cell cycle distribution by PI staining and flow cytometry. Format: cell-based, human. How it is done:
After excluding sub-G1 events, we proceeded to evaluate the impact of dyes 5 and 10 on cell cycle distribution.
Apoptosis (sub-G1 events) and cell cycle distribution were evaluated by propidium iodide (PI) staining and flow cytometry, as described by Riccardi and Nicolleti. After 48 h of Caco-2 cells (2 mL; 3 × 10^4 cells/mL) adherence in 6-well plates, the culture medium was substituted with the test solutions (3 mL and 5 mL for negative control) and incubated for a further 72 or 120 h. Untreated cells were used as the negative control, and sorbitol and 5-FU were used as positive controls. After incubation, the supernatant was collected in a centrifuge tube, cells were washed with PBS, trypsinized and wells were once again washed with PBS. This cell suspension was maintained on ice, centrifugated at 300 g for 5 min, and then the pellet was resuspended in 0.5 mL of PBS. Cells were fixed by adding 4.5 mL of 70% ethanol cooled at −20 °C on ice and were stored at −20 °C for a period ranging from one to a few days. On the day of flow cytometry analysis, PBS was added to the fixed cell tubes, followed by centrifugation and removal of the supernatant. The pellet was resuspended in 0.5 mL of PBS and 0.5 mL of DNA extraction solution (192 mL of 0.2 M sodium phosphate and 8 mL of 0.1% Triton X-100, pH 7.8). After incubation for 5 min, the cells were once again centrifuged, the supernatant was removed, and the pellet was resuspended in 0.3 mL of staining solution (20 µg/mL of PI and 0.2 mg/mL of DNase-free RNase in PBS). Using a FACSCalibur flow cytometer (Becton Dickinson, Franklin Lakes, NJ, USA) with a 488 nm laser line, a minimum of 20,000 events were acquired and recorded using the BD CellQuestTM Pro 4.0.2 software, and analyzed with FlowJo 10.5.3 software. To exclude debris and necrotic cells, events with a lower diameter (forward scatter; FCS) and PI fluorescence (FL3) than the hypodiploid apoptotic cells were eliminated (Figures S1 and S2). Two independent experiments were performed. A Student’s t-test was performed to evaluate the statistical significance of the results.

The results in this text go back to publication PMC11642940, “A New Demand for Improved Selectivity and Potency of Cyanine Dyes as Antiproliferative Agents Against Colorectal Cancer Cells” (Molecules, 2024).

Structures are written as SMILES.

Usually viability stands for a per cent measure of how many cells are alive, often set against a control. The term IC50 denotes the concentration that inhibits the measured activity by half.

`O=c1[nH]cc(F)c(=O)[nH]1` [5-FU, 5-fluorouracil, reference compound]: in the data set with Caco-2 cells [1] (Caco-2, 10 µM), the “apoptosis (sub-G1 events), % of cells” value was found to be 12.8%. The viability at 72 h, 10 µM in data set [2] was determined as 10.5 ± 0.74%. For the same compound, the IC50 in data set [3] was 4.53 µM. In addition, in the data set on Caco-2 cells [4] (Caco-2, 10 µM, 72 h), the “proportion of cells in G0/G1 phase” value is given as 10.1% and the “proportion of cells in S phase” value was “around 80.3%”.
Consider `CN1C(=Cc2oc3ccccc3[n+]2C)C=Cc2ccccc21.Cc1ccc(S(=O)(=O)[O-])cc1` [Dye 5, 3-Methyl-2-((1-methylquinolin-2(1H)-ylidene)methyl)benzo[d]oxazol-3-ium 4-methylbenzenesulfonate], for which the “apoptosis (sub-G1 events), % of cells” value with Caco-2 cells [1] (Caco-2, 1 µM) was “approximately 2.3%”. Also, in data set [2], the viability at 72 h, 10 µM is 15.4 ± 1.82%. For the same compound, in data set [3], the IC50 was found to be 2.79 µM. In addition, the “effect on cell cycle distribution” value in the data set with Caco-2 cells [4] (Caco-2, 1 µM, 72 and 120 h) is “did not significantly alter the cell cycle distribution”.
With `CCN1C(=Cc2sc3cc([N+](=O)[O-])ccc3[n+]2CC)Sc2ccccc21.Cc1ccc(S(=O)(=O)[O-])cc1` [Dye 10, 3-Ethyl-2-((3-ethylbenzo[d]thiazol-2(3H)-ylidene)methyl)-6-nitrobenzo[d]thiazol-3-ium 4-methylbenzenesulfonate], the “apoptosis (sub-G1 events), % of cells” value in the data set with Caco-2 cells [1] (Caco-2, 10 µM) was found to be 1.7%. In addition, in data set [2], the viability at 72 h, 10 µM turned out to be 34.3 ± 1.99%. The IC50 in data set [3] worked out at 22.4 µM. For the same compound, in the data set on Caco-2 cells [4] (Caco-2, 10 µM, 72 h), the “proportion of cells in G0/G1 phase” value was “approximately 62.0%” and the “proportion of cells in G2/M phase” value came out at 6.6%.
